Among the data in the Kinase Knowledgebase extract (Sharma et al. 2016) are IC50 values, retold here.

The structures appear in SMILES notation.

Test [1] concerns the target EGFR (human) (UniProt P00533). The test is described as follows: Assessment of DiFi Cell Growth Inhibition by MTS Assay.
The target in test [2] is EGFR (human) (UniProt P00533). The following applies: huvec.
A further test concerns the target EGFR (UniProt P00533).

Sequence of EGFR (human) (P00533 whole entry, looked up): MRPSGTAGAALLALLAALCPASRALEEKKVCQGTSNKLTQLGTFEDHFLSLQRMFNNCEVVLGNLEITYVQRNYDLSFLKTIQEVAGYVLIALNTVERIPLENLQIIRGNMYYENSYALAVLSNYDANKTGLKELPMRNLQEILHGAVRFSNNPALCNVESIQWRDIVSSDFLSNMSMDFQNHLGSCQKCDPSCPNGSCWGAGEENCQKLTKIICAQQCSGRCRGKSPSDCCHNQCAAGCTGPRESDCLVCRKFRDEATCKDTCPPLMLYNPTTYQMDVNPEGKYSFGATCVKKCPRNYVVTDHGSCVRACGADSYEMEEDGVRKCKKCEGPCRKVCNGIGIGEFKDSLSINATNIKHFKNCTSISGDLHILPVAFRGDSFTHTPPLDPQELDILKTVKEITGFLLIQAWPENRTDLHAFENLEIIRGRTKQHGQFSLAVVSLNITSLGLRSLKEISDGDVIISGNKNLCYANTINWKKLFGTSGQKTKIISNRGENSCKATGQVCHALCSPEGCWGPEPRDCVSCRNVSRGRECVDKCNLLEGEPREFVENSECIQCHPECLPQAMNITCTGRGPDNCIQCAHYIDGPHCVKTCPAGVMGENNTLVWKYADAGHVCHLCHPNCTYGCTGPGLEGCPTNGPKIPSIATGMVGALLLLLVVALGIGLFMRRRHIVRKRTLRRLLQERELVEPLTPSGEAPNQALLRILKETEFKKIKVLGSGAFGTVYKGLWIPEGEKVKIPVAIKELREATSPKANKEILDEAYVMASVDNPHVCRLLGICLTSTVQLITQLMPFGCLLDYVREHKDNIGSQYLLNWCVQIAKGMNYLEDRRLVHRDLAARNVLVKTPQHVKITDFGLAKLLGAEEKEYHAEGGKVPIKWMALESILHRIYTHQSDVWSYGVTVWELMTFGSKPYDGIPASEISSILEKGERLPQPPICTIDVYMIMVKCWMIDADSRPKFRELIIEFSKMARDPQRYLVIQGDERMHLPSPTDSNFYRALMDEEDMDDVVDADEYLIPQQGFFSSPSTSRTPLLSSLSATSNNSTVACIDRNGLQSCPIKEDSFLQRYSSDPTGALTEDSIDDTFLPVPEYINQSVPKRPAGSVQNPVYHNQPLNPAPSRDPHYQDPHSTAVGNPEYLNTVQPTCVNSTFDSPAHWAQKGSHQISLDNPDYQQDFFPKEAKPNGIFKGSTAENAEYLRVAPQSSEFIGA
Sequence of EGFR (P00533 whole entry, looked up): as above

For the compound `Cc1cc2c(Nc3ccc(F)c(Cl)c3)ncnn2c1`, the IC50 against EGFR (human) [1] was 1600 nM; against EGFR (human) [2], 509 nM. Consider `Fc1ccc(Nc2ncnn3cccc23)cc1Cl`, for which the IC50 was 1840 nM at EGFR (human) [1], 118 nM on EGFR and 345 nM on EGFR (human) [2]. Turning to `Cc1ccn2ncnc(Nc3ccc(F)c(Cl)c3)c12`, the IC50 was 3060 nM on EGFR (human) [1] and 602 nM on EGFR (human) [2].

For the compound `Cc1ccc(Nc2ncnn3c(C)ccc23)cc1O`, the IC50 was > 10000 nM against EGFR (human) [1] and 101 nM on EGFR (human) [2]. `Cc1cc2c(Nc3ccc(C)c(O)c3)ncnn2c1`: the IC50 against EGFR (human) [1] is > 10000 nM. `Cc1ccc(Nc2ncnn3cc(C)c(C)c23)cc1O`: at EGFR (human) [1], the IC50 was > 10000 nM. Same read-out and setting: next, `Cc1ccc(Nc2ncnn3cccc23)cc1O`: > 10000 nM.

On to `Cc1ccc(Nc2ncnn3ccc(C)c23)cc1O`, for which the IC50 was > 10000 nM on EGFR (human) [1] and 270 nM against EGFR (human) [2]. For `Cc1ccc2c(Nc3ccc(F)c(Cl)c3)ncnn12`, in that order: > 10000 nM and > 2500 nM.

One may read the IC50 as the concentration needed to halve the response being measured.
